Here are results for one molecule from US20240374555A1, “Mast Cell Stabilizer with Sodium Cromoglycate-based Inhibitor for Preventing Lipedema Progression” (MAGI'S LAB SRL, priority 2023, published 2024).

The test system of this assay is histamine and its metabolites in the tissue of people with lipedema. As to the kind of experiment: Metabolomic analysis (IM-MS) of subcutaneous adipose tissue biopsies from lipedema patients treated with sodium cromoglycate. The class given is in vivo, human. The conditions noted are these: for Histamine levels in tissue samples after treatment (in words): three lipedema patients treated for two weeks. Here is the method: This experiment study involved patients who were diagnosed with lipedema. The study began with collection of a sample from each subject in the study, and three patients received a treatment regimen consisting of twice daily oral doses of sodium cromoglycate (500 mg) for 15 days, as well as a topical cream containing 4% sodium cromoglycate. The effects of this treatment on the patients' symptoms and mast cell activation were evaluated as part of the study.
Thereafter, metabolomic analysis was performed by mass spectrometry. Specifically, the ion-mobility mass spectrometry (IM-MS) technique combined ion mobility with mass spectrometry, allowing different compounds to be characterized together with a specific m/z ratio. SACI-CIMS was used as ionization technique. Data were acquired through the SANIST platform. Values under the Limit of Quantification (LoQ=1 pg/mg) were considered as 0 pg/mg.
Thereafter, a target histological and metabolomic examination was performed. Specifically, biopsies of subcutaneous adipose tissue were taken from a total of six patients with lipedema and four healthy individuals.

Where [1] appears, read: lipedema tissue of patients treated with sodium cromoglycate (n = 3), 500 mg oral twice daily for 15 days plus 4% topical cream.
Where [2] appears, read: lipedema tissue of patients treated with sodium cromoglycate (n = 3), 500 mg oral twice daily for 15 days plus 4% topical cream, values under LoQ (1 pg/mg) given as 0.

Structures are written as SMILES.

With `O=C(O)c1cc(=O)c2c(OCC(O)COc3cccc4oc(C(=O)O)cc(=O)c34)cccc2o1` [sodium cromoglycate, Sodium cromoglycate], the “Histamine levels in tissue samples after treatment (in words)” value is recorded as “effectively reduce histamine levels”. Also, under setting [1], the 1-Methylhystamine tissue level is on record as 13.67 ± 10.02 pg/mg and the Histidine tissue level was determined as 20.67 ± 17.00 pg/mg. Also, under setting [2], the Histamine tissue level is listed as 0 pg/mg and the “Imidazole Acetaldehyde tissue level” value was 0 pg/mg. In addition, the “Histamine levels in tissue samples after treatment (in words)” value (listed as disodium cromoglycate) is given as “normal levels of histamine”.
